Reference: patent US8426398B2 (Emory University, priority 2009, dated 2013)

Key:
[1] = system: variety of cancer cell types with varying degrees of folate receptor expression; assay: sulforhodamine B cellular proliferation assay; format: cell-based; settings: irrespective of folate receptor status
Protocol: Our next goal was to determine whether differences in folate receptor overexpression affected cytotoxicity in response to Targetin. To this end, the ability of Targetin to inhibit cellular proliferation of a variety of cancer cell types with varying degrees of folate receptor expression was evaluated using a sulforhodamine B assay to determine total protein content (FIG. 7).

[2] = system: FR-α overexpressing cancer cells (SK-OV3 human ovarian carcinoma cells, U87 glioblastoma cells); assay: cell viability using Trypan blue (adherent live cells), 48 hours; format: cell-based
Protocol: Live cells remain adherent and exclude Trypan blue (although a few late stage dying cells that remain adherent are Trypan blue-positive, and are not counted as live adherent). The numbers of adherent live cells are quantified in panels B and D respectively.
An equal number of two types of cells, (SK-OV3 human ovarian carcinoma cells and U87 glioblastoma cells) were plated in 15 tissue culture dishes. Plates were divided into five groups of triplicates.
FIGS. 8A & B show phase images and quantification of cell viability using Trypan blue in SK-OV3 cells. FIGS. 8C & D show parallel data for human glioblastoma U87 cells. Data for two other FR-α cell lines are similar (not shown).

[3] = system: tubulin; assay: assembly of tubulin subunits into microtubules in vitro (light scattering); format: biochemical; settings: for effect on tubulin polymerization: 25 μM
Protocol: (§1) FIG. 5 is a picture showing the fluorescence quenching of tubulin by Targetin. Panel A, quenching of tubulin fluorescence emission by Targetin in a concentration-dependent manner (▪) control, 10 μM (●), 20 μM (▴), 30 μM (▾), 50 μM ( ? ), 75 μM ( ? ) and 100 μM (♦) Panel B, double-reciprocal plot for Targetin binding to tubulin. […] Equivalent amount of solvent DMSO was used as a negative control.
(§2) However, at a four-fold concentration of Targetin (100 μM), it inhibited the rate and extent of tubulin polymerization by ˜17% (FIG. 5C).

[4] = system: tubulin; assay: tubulin-fluorescence quenching titration; format: binding; settings: 10-100 μM, compared with parent noscapine
Protocol: as §1, §2

[5] = system: porcine renal LLCPK-1 cells stably expressing GFP-tagged α-tubulin; assay: microtubule dynamics in living cells (plus ends of GFP-tagged α-tubulin MTs); format: cell-based; settings: for Rate, Growing: individual microtubules in interphase cells
Protocol: FIG. 6 is a series of photographs showing how Targetin increases the pause-time of cellular MTs. A gallery of video frames, 6 seconds apart, of plus ends of several microtubules in control and Targetin treated cells.
To determine if Targetin affects MT dynamics in living cells, the life history of the plus ends of Targetin-treated cellular MTs was evaluated, resolvable individually at the cell periphery of porcine renal LLCPK-1 cells stably expressing green fluorescent protein (GFP)-tagged α-tubulin. These cells were treated either with Targetin in DMSO or DMSO alone. […] As expected in control cells, MTs alternated between phases of growth and shortening interrupted occasionally by a state of attenuated dynamic activity (pause), determined by noting the position of the plus ends over time. The control panels show different positions of MT plus ends in a 24 second time period (arrows represent fixed pixel position for reference).

[6] = oral 300 mg/kg body weight to 600 mg/kg; cited from earlier work
[7] = system: cells expressing green fluorescent protein (GFP)-tagged α-tubulin; settings: 30 second time period; cited from earlier work
[8] = system: tubulin; settings: cited from earlier work
[9] = system: melanoma, glioblastoma, ovarian, breast carcinoma, and prostate cancer cells; settings: many cancer cell types; cited from earlier work
[10] = target: T1, folate receptor (Homo sapiens, UniProt P15328); settings: KB-31 cells, 3H-folic acid; cited from earlier work
T1 construct: determined in cultured KB-31 cells (nasopharyngeal epidermal carcinoma cell line) overexpressing the folate receptor using ^3H-folic acid; endogenous in cells; host or cells: KB-31 cells
T1 sequence (P15328 25-234): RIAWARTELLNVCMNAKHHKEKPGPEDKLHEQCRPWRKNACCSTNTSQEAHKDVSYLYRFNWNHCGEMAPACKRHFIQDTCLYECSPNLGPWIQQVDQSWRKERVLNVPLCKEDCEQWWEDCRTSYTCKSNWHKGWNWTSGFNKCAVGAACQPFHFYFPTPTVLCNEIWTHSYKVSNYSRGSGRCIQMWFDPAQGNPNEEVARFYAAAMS

## Noscapine-folate [Targetin]
[1]
  potency in inhibiting cellular proliferation relative to noscapine: about 3 fold
[2]; 10 μM Targetin vs 25 μM noscapine, FR-α overexpressing cell lines
  effectiveness compared with noscapine (adherent live cells): significantly more effective than noscapine
[2]; 50 μM folic acid + 10 μM Targetin, FR-α overexpressing cancer cells
  effect of free folic acid on Targetin toxicity: free folic acid mitigates the Targetin toxicity
[3]
  effect on tubulin polymerization: did not inhibit tubulin polymerization
[3]; 100 μM
  inhibition of the rate and extent of tubulin polymerization: ~17%
[4]
  tubulin binding activity (quenching of tubulin fluorescence): does retain the tubulin binding activity
[5]; Targetin 5 μM
  Average pause: 10.25 ± 1.25 s
  Dynamicity: 4.52 ± 1.21 μm/min
  Percent of total time, Attenuation: 32.5%
  Percent of total time, Growing: 35.2%
  Percent of total time, Shortening: 28.5%
  Rate, Shortening: 11.78 ± 1.21 μm/min
  Transition frequency, Catastrophe: 0.079 ± 0.07 s⁻¹
  Transition frequency, Rescue: 0.07 ± 0.012 s⁻¹
  Rate, Growing: 8.72 ± 1.32 μm/min
[5]; Targetin 10 μM
  Average pause: 14.52 ± 2.36 s
  Dynamicity: 2.75 ± 1.05 μm/min
  Percent of total time, Attenuation: 44.8%
  Percent of total time, Growing: 24.3%
  Percent of total time, Shortening: 20.1%
  Rate, Shortening: 9.92 ± 1.25 μm/min
  Transition frequency, Catastrophe: 0.072 ± 0.05 s⁻¹
  Transition frequency, Rescue: 0.059 ± 0.019 s⁻¹
  Rate, Growing: 7.15 ± 0.56 μm/min
[5]; summary statement
  MT-binding and MT dynamics attenuating activity relative to noscapine: ~3 fold

## COc1ccc2c(c1OC)C(=O)O[C@@H]2[C@H]1c2c(cc3c(c2OC)OCO3)CCN1C [Noscapine]
[6]
  drug bioavailability on doubling the oral dose: did not increase
[3]
  effect on tubulin polymerization: did not inhibit tubulin polymerization
[7]
  MT dynamics (position of plus ends): suppressed MT dynamics
[8]
  apparent stoichiometry of binding to tubulin: 0.95±0.02 noscapine molecule per tubulin dimer subunit
[9]
  effect on cell cycle and cell death: brief mitotic pause followed by extensive apoptosis

## Nc1nc(O)c2nc(CNc3ccc(C(=O)N[C@@H](CCC(=O)O)C(=O)O)cc3)cnc2n1 [folic acid]
[10]
  in vitro binding affinity: 41 nmol/L
